Consider two cell lines from the supplement of paper PMC10307832.

Test in all cases: relative viability (nuclei count vs DMSO), 5 days (fraction); higher = more cells survive
Compound in the assay “Entinostat + Lapatinib”: Nc1ccccc1NC(=O)c1ccc(CNC(=O)OCc2cccnc2)cc1 [Entinostat] + CS(=O)(=O)CCNCc1ccc(-c2ccc3ncnc(Nc4ccc(OCc5cccc(F)c5)c(Cl)c4)c3c2)o1 [Lapatinib] (partner 2 µM)
The method in brief: (§1)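 The day after seeding in 1536-well plates, lung cancer cell lines were treated by pin tool with a single drug, or with a fixed anchor-drug dose together with five library-drug doses (not always all listed) in √10 steps. After 5 days, a combined fix-and-stain solution (final 0.05% Triton X-100, 1% formaldehyde, 1 ug/ml Hoechst) was added. Nuclei counted on 4× images gave relative viability as treated counts over vehicle counts, reported as the median of duplicate plates.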

Compound in the assay “SGI-1776 + Crizotinib”: CN1CCC(CNc2ccc3ncc(-c4cccc(OC(F)(F)F)c4)n3n2)CC1 [SGI-1776] + C[C@@H](Oc1cc(-c2cnn(C3CCNCC3)c2)cnc1N)c1c(Cl)ccc(F)c1Cl [Crizotinib] (partner 1 µM)
The method, boiled down: as §1

Compound in assay [1]: C1COCCN1C2=NC(=NC3=C2OC4=C3C=CC=N4)C5=CC(=CC=C5)NC(=O)C6=CN=C(C=C6)N + N=C(N)NC(=N)NCCc1ccccc1 [Phenformin] (partner 250 µM)
The method in brief: as §1

Compound in the assay “SGI-1776 + Luminespib”: CN1CCC(CNc2ccc3ncc(-c4cccc(OC(F)(F)F)c4)n3n2)CC1 [SGI-1776] + CCNC(=O)c1noc(-c2cc(C(C)C)c(O)cc2O)c1-c1ccc(CN2CCOCC2)cc1 [Luminespib] (partner 0.01 µM)
The method, boiled down:
as §1

Turning to SK-MES-1, the relative viability with Entinostat + Lapatinib (first compound 0.02 µM) worked out at 0.511; with Entinostat + Lapatinib (first compound 0.06325 µM), 0.525; with Entinostat + Lapatinib (first compound 0.2 µM), 0.494; in the assay with Entinostat + Lapatinib (first compound 0.6325 µM) it was 0.488; with Entinostat + Lapatinib (first compound 2 µM), 0.395; in the assay with SGI-1776 + Crizotinib (first compound 0.08 µM), 1.11. For the same cell line, the relative viability was found to be 0.947 with SGI-1776 + Crizotinib (first compound 0.8 µM); 1.02 in the assay with SGI-1776 + Crizotinib (first compound 2.53 µM); 0.979 with SGI-1776 + Crizotinib (first compound 8 µM); 0.663 in assay [1] (first compound 0.02 µM); 0.766 in assay [1] (first compound 0.06325 µM); 0.729 in assay [1] (first compound 0.2 µM). The relative viability came to 0.618 in assay [1] (first compound 0.6325 µM); 0.462 in assay [1] (first compound 2 µM); 0.856 in the assay with SGI-1776 + Luminespib (first compound 0.08 µM); 0.849 in the assay with SGI-1776 + Luminespib (first compound 0.8 µM); 0.395 with SGI-1776 + Luminespib (first compound 2.53 µM); 0.386 in the assay with SGI-1776 + Luminespib (first compound 8 µM).
Consider SW 1573, for which the relative viability with Entinostat + Lapatinib (first compound 0.02 µM) was determined as 1.42; with Entinostat + Lapatinib (first compound 0.06325 µM), 1.23; with Entinostat + Lapatinib (first compound 0.2 µM) it was 1.19; with Entinostat + Lapatinib (first compound 0.6325 µM) it was 1.29; with Entinostat + Lapatinib (first compound 2 µM), 0.949; with SGI-1776 + Crizotinib (first compound 0.08 µM), 0.904. The relative viability came to 0.835 with SGI-1776 + Crizotinib (first compound 0.8 µM); 0.624 with SGI-1776 + Crizotinib (first compound 2.53 µM); 0.395 with SGI-1776 + Crizotinib (first compound 8 µM); 0.368 in assay [1] (first compound 0.02 µM); 0.454 in assay [1] (first compound 0.06325 µM); 0.314 in assay [1] (first compound 0.2 µM). For the same cell line, the relative viability in assay [1] (first compound 0.6325 µM) was determined as 0.319; in assay [1] (first compound 2 µM), 0.205; with SGI-1776 + Luminespib (first compound 0.08 µM) it was 0.281; with SGI-1776 + Luminespib (first compound 0.8 µM), 0.653; with SGI-1776 + Luminespib (first compound 2.53 µM), 0.314; with SGI-1776 + Luminespib (first compound 8 µM), 0.185.
